In US4093724A, “Novel-3-(4-quinolylamino)-2-thiophene-carboxylates” (Roussel Uclaf, priority 1976, dated 1978) one finds ED50 data, which are given here for three compounds.

The test has as its system mice (stretching and twisting provoked by intraperitoneal injection of acetic acid). Description: Analgesic Activity: acetic acid-induced stretching test in mice (based on Koster et al). The class given is in vivo. The settings on record: Mus musculus, fasted 24 hours, test product oral 30 minutes before i.p. acetic acid (60 mg/kg), stretchings counted during 15 minutes after injection, read-out: AD50 (dose which reduced by 50% the number of stretching as compared to the controls). The procedure:
The test was based on that of Koster et al [Fed. Proc., Vol. 18 (1959) p. 412] wherein the intraperitoneal injection of acetic acid provokes in mice repeated stretching and twisting which persists for more than 6 hours and an analgesic prevents or suppresses this syndrom which is considered to be the exteriorization of a diffuse abdominal pain. A solution of 0.6% acetic acid in water containing 10% of arabic gum is used and the dose which causes the syndrom under these conditions is 0.01 ml/g or 60 mg/kg of acetic acid. The test products were orally administered 30 minutes before the intraperitoneal injection of acetic acid and the mice were fasted for 24 hours before the test.
For each dose and for the controls required in each test, groups of 5 mice were used and the stretchings were observed and counted for each mouse and added for each group, during a period of 15 minutes right after the injection. The AD50 or dose which reduced by 50% the number of stretching as compared to the controls was determined.

Molecules are shown by their SMILES. Structures can show the parent of a compound that is named as a salt.

As for `O=C(OCCN1CCN(c2cccc(C(F)(F)F)c2)CC1)c1sccc1Nc1ccnc2c(C(F)(F)F)cccc12` [Example 1, 2-[4-(3-trifluoromethylphenyl)-1-piperazinyl]-ethyl 3-[8-trifluoromethyl-4-quinolylamino]-2-thiophene-carboxylate dihydrochloride], the ED50 stood at 20 mg/kg.

With `O=C(OCCN1CCN(c2ccc(Cl)cc2)CC1)c1sccc1Nc1ccnc2c(C(F)(F)F)cccc12` [Example 2, 2-[4-(4-chlorophenyl)-1-piperazinyl]-ethyl 3-(8-trifluoromethyl-4-quinolylamino)-2-thiophene-carboxylate], the ED50 was found to be 15 mg/kg.

Take `O=C(OCCN1CCN(c2cccc(C(F)(F)F)c2)CC1)c1sccc1Nc1ccnc2cc(Cl)ccc12` [Example 3, 2-[4-(3-trifluoromethylphenyl)-1-piperazinyl]-ethyl 3-(7-chloro-4-quinolylamino)-2-thiophene-carboxylate]: the ED50 amounted to 20 mg/kg.
